Tests used:
ICR male mouse = test: PBQ-induced writhing test (analgesic efficacy); type: in vivo; details: oral administration, PBQ 0.02% intraperitoneal
Procedure: In order to test analgesic efficacy of the biaryl benzoimidazole derivative of the invention, a PBQ-induced writhing test was performed using a mouse.
A 5-week-old ICR male mouse was used as an experimental animal, and PBQ (phenyl-p-quinone, 0.02%) was used as a chemical stimulator. 20 mg of the test material per mouse body weight were suspended in 10 mL solvent of Na-CMC and saline solution, and then used. […] Between 5 to 10 minutes after administration, the writhing frequency of each subject of the experimental groups was measured, and for the measurement of the analgesic efficacy, the frequency reduction was calculated as compared to a control group by using Equation 1. Inhibitory effect (%)=[(a control group administered with excipient−a group administered with test material)/a control group administered with excipient]×100 [Equation 1]

[1] = target: T1, human vanilloid receptor VR-1 (hVR1) (Homo sapiens, UniProt Q8NER1); test: Calcium influx test of vanilloid receptor (capsaicin-induced, Fluo-3/AM, hVR1-HEK293 cells); type: cell-based; details: for IC50: calcium influx induced by 1 μM capsaicin, read-out: Inhibitory effect IC50 (nM) on calcium influx; for inhibition at 0.2 µM: single concentration of compound 200 nM, 1 μM capsaicin, read-out: Inhibitory effect (%) on calcium influx
T1 construct: expressed in transfected cells; host or cells: HEK293 Tet-on cells (hVR1-HEK293), expression induced with doxycycline
T1 sequence (Q8NER1 whole entry): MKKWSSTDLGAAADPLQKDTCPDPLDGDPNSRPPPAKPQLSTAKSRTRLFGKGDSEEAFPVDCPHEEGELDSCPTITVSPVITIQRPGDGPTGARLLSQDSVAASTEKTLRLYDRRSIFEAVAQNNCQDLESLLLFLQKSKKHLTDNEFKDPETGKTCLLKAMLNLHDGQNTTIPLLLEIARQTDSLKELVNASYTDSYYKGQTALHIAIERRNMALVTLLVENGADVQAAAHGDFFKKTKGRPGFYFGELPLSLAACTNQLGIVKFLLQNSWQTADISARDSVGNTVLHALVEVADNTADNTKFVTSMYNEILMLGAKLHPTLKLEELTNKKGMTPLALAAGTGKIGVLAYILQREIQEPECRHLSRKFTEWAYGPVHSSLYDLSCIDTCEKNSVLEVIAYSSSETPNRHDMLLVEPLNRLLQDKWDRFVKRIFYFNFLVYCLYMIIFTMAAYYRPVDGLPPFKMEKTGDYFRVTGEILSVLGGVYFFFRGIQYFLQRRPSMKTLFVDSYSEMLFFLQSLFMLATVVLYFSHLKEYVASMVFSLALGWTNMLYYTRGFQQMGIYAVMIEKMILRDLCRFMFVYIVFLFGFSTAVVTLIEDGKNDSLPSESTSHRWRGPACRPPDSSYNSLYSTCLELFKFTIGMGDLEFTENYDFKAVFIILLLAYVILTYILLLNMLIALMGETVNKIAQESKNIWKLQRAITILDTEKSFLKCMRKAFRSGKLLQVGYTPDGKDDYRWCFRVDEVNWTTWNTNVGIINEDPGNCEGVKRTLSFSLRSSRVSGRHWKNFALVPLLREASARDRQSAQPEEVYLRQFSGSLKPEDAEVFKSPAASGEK
Procedure: In order to measure an activity of the biaryl benzoimidazole derivative of the invention as an antagonist, a calcium influx test was performed.
An hVR1-HEK293 cell line is a cell line, in which a Human Embryonic Kidney (HEK) 293 Tet-on cell is transformed with a human vanilloid-1 gene (pTRE2hyg-hVR1, 7.8 kb). The cell line can regulate a VR-1 expression, depending on the administration of a tetracycline analogue, doxycycline. At two days before the calcium influx test, the cell line was cultured in media containing doxycycline to induce the VR-1 expression, and then used. First, the hVR1-HEK293 cells were cultured in T75 flasks to have a density of about 80%, and then detached from the bottom of the flasks by using trypsin. The detached cells were centrifuged and collected. Then, the cells were suspended in media containing 1 μg/mL doxycycline, and diluted to have a concentration of 2×10^5 to 4×10^5 cells/mL. 100 μL of the suspended cells were added to each well of 96-well black plate, cultured at 37° C. and 5% CO2 cell incubator for two days, and then used in the calcium influx test.
The compound was dissolved in dimethyl sulfoxide (DMSO), and then used for the calcium influx test.
In order to measure the calcium influx […], the cells were cultured in a solution containing Fluo-3/AM, which is a calcium indicator, at 37° C. for 90 minutes, so as to be permeated by a fluorescent dye. […] 193 μL D-PBS were added to each well, and then the compound was added thereto in various concentrations. To measure an activity as an antagonist, the cells were treated with 1 μM capsaicin to stimulate the calcium influx. The inhibitory effect of the compound when calcium influx was induced by 1 μM capsaicin was measured depending on its concentration using a fluorescence spectrometer, and the obtained data were substituted into a hill equation to analyze the values.
The inhibitory effect on calcium influx was measured with a single concentration of the compounds of the invention (200 nM), and the result thereof are shown in Table 2.

Compound | Inhibitory effect (%) on writhing frequency (ICR male mouse; (1 hour)) | IC50 [1] | inhibition at 0.2 µM [1] | Inhibitory effect (%) on writhing frequency (ICR male mouse; (2 hour)) | Inhibitory effect (%) on writhing frequency (ICR male mouse; (0.5 hour))
CC(C)(C)c1ccc2nc(-c3ccc(-c4ncc(CO)cc4Cl)cc3)[nH]c2c1 [Compound 29, {6-[4-(6-tert-butyl-1H-benzoimidazol-2-yl)-phenyl]-5-chloro-pyridin-3-yl}-methanol] | 59 (1 hour) % | 15.9 nM | 74.8% | – | –
COC(=O)c1cnc(-c2ccc(-c3nc4ccc(C(F)(F)F)cc4[nH]3)cc2)c(Cl)c1 [Compound 48, 5-chloro-6-[4-(6-trifluoromethyl-1H-benzoimidazol-2-yl)-phenyl]-nicotinic acid methyl ester] | 41 (1 hour) % | 55.1 nM | 38.7% | – | –
COC(=O)c1cnc(-c2ccc(-c3nc4ccc(C(C)(C)C)cc4[nH]3)cc2)c(Cl)c1 [Compound 49, 6-[4-(6-tert-butyl-1H-benzoimidazol-2-yl)-phenyl]-5-chloro-nicotinic acid methyl ester] | – | 23.1 nM | 85% | 49 (2 hour) % | –
COC(=O)c1cnc(-c2ccc(-c3nc4ccc(Br)cc4[nH]3)cc2)c(Cl)c1 [Compound 50, 6-[4-(6-bromo-1H-benzoimidazol-2-yl)-phenyl]-5-chloro-nicotinic acid methyl ester] | 19 (1 hour) % | 62.3 nM | 46.4% | – | –
CC(=O)OCc1cnc(-c2ccc(-c3nc4ccc(C(F)(F)F)cc4[nH]3)cc2)c(Cl)c1 [Compound 53, acetic acid 5-chloro-6-[4-(6-trifluoromethyl-1H-benzoimidazol-2-yl)-phenyl]-pyridin-3-yl methyl ester] | – | 90.4 nM | 37.4% | 34 (2 hour) % | –
COC(=O)c1cnc(-c2ccc(-c3nc4ccc(N5CCN(C)CC5)cc4[nH]3)nc2)c(Cl)c1 [Compound 72, 3-chloro-6′-[6-(4-methyl-piperazin-1-yl)-1H-benzoimidazol-2-yl]-[2,3′]bipyridinyl-5-carboxylic acid methyl ester] | – | – | -2.9% | – | 31 (0.5 hour) %
COC(=O)c1cnc(-c2ccc(-c3nc4ccc(C(F)(F)F)cc4[nH]3)nc2)c(Cl)c1 [Compound 73, 3-chloro-6′-(6-trifluoromethyl-1H-benzoimidazol-2-yl)-[2,3′]bipyridinyl-5-carboxylic acid methyl ester] | 39 (1 hour) % | 55.2 nM | 56.1% | – | –
OCc1cnc(-c2ccc(-c3nc4c(Br)cc(Br)cc4[nH]3)nc2)c(Cl)c1 [Compound 94, [3-chloro-6′-(4,6-dibromo-1H-benzoimidazol-2-yl)-[2,3′]bipyridinyl-5-yl]-methanol] | – | – | 9.8% | – | –
CCNC(=O)c1cnc(-c2ccc(-c3nc4ccc(N5CCOCC5)cc4[nH]3)nc2)c(Cl)c1 [Compound 95, 3-chloro-6′-(6-morpholin-4-yl-1H-benzoimidazol-2-yl)-[2,3′]bipyridinyl-5-carboxylic acid ethyl amide] | – | – | -0.6% | – | –
CCNC(=O)c1cnc(-c2ccc(-c3nc4ccc(C(F)(F)F)cc4[nH]3)nc2)c(Cl)c1 [Compound 97, 3-chloro-6′-(6-trifluoromethyl-1H-benzoimidazol-2-yl)-[2,3′]bipyridinyl-5-carboxylic acid ethyl amide] | – | – | 13.3% | – | –
CCNC(=O)c1cnc(-c2ccc(-c3nc4ccc(C(C)(C)C)cc4[nH]3)nc2)c(Cl)c1 [Compound 98, 6′-(6-tert-butyl-1H-benzoimidazol-2-yl)-3-chloro-[2,3′]bipyridinyl-5-carboxylic acid ethyl amide] | – | – | 13.2% | – | –
CCNC(=O)c1cnc(-c2ccc(-c3nc4ccc(Br)cc4[nH]3)nc2)c(Cl)c1 [Compound 99, 6′-(6-bromo-1H-benzoimidazol-2-yl)-3-chloro-[2,3′]bipyridinyl-5-carboxylic acid ethyl amide] | – | – | 17.5% | – | –
CCNC(=O)c1cnc(-c2ccc(-c3nc4ncc(Br)cc4[nH]3)nc2)c(Cl)c1 [Compound 100, 6′-(6-bromo-1H-imidazo[4,5-b]pyridin-2-yl)-3-chloro-[2,3′]bipyridinyl-5-carboxylic acid ethyl amide] | – | – | 13% | – | –
CCNC(=O)c1cnc(-c2ccc(-c3nc4c(Br)cc(C(F)(F)F)cc4[nH]3)nc2)c(Cl)c1 [Compound 101, 6′-(4-bromo-6-trifluoromethyl-1H-benzoimidazol-2-yl)-3-chloro-[2,3′]bipyridinyl-5-carboxylic acid ethyl amide] | – | – | 3.7% | – | –
CCNC(=O)c1cnc(-c2ccc(-c3nc4c(Br)cc(Br)cc4[nH]3)nc2)c(Cl)c1 [Compound 102, 3-chloro-6′-(4,6-dibromo-1H-benzoimidazol-2-yl)-[2,3′]bipyridinyl-5-carboxylic acid ethyl amide] | – | – | 13.2% | – | –
